This note sets out measurements from patent US9850283B2, “Macrocyclic inhibitors of the PD-1/PD-L1 and CD80(B7-1)/PD-L1 protein/protein interactions” (BRISTOL-MYERS SQUIBB COMPANY, priority 2013, dated 2017).

Like-named read-outs stand apart in the source and are kept apart here. Positions of bridges follow the written chain, without caps; N, C: chain ends. Non-standard residues stand in square brackets, D forms with d. Residues, ends and D or L forms follow the SMILES beside them. Tyr(3,5-Br2) = N[C@@H](Cc1cc(Br)c(O)c(Br)c1)C(=O)O; Trp(5-Cl) = N[C@@H](Cc1c[nH]c2ccc(Cl)cc12)C(=O)O; Phe(4-CF3) = N[C@@H](Cc1ccc(C(F)(F)F)cc1)C(=O)O; Phe(3,5-F2) = N[C@@H](Cc1cc(F)cc(F)c1)C(=O)O; Phe(4-CH2NH2) = NCc1ccc(C[C@H](N)C(=O)O)cc1; Ala(2-furyl) = N[C@@H](Cc1ccco1)C(=O)O; Phe(3-F) = N[C@@H](Cc1cccc(F)c1)C(=O)O; Phe(4-F) = N[C@@H](Cc1ccc(F)cc1)C(=O)O; cisHyp = O=C(O)[C@@H]1C[C@H](O)CN1; Hyp = O=C(O)[C@@H]1C[C@@H](O)CN1; NMeF = CN[C@@H](Cc1ccccc1)C(=O)O; NMeNle = CCCC[C@H](NC)C(=O)O; NMeA = CN[C@@H](C)C(=O)O; Dab = NCC[C@H](N)C(=O)O; Sar = CNCC(=O)O

A word on the IC50: it is the concentration at which inhibition is half-maximal.

For experiment [1], the target named is T1, Human PD-L1/PD-1 (Homo sapiens, UniProt Q9NZQ7).
T1 construct: made in house; host or cells: HEK293T
T1 sequence (Q9NZQ7 with tags, fused parts or gaps): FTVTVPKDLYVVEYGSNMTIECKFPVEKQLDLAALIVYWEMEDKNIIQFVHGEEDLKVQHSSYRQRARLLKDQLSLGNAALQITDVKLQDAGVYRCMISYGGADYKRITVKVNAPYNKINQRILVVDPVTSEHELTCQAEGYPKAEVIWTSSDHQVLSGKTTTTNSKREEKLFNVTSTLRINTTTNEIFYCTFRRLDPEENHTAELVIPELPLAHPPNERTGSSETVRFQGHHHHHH
Nature of the experiment: HTRF PD-1-Ig/PD-L1-His binding assay (human PD-L1). The conditions noted are these: cluster symbol; read-out: HTRF IC50 cluster. In outline: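 Readout: time-resolved FRET between Eu cryptate-labeled anti-Ig (1 nM final) and APC-labeled anti-His (20 nM final) antibodies. These detect interaction of Fc-fused PD-1 with His-tagged human PD-L1 in dPBS containing 0.1% BSA and 0.05% Tween-20.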
For orientation: In TR-FRET formats the signal depends on donor and acceptor labels being close together.

Experiment [2] addresses T2, LK35.2-hPD-L1 cells / PE-labeled PD-1-Ig (Homo sapiens, UniProt Q9NZQ7).
T2 construct: expressed in transfected cells; host or cells: LK35.2 mouse B cell line
Kind of experiment: LK35.2-hPD-L1 cell binding high-content screening assay. The conditions noted are these: cluster symbol, read-out: CBA IC50 cluster. It counts as cell-based. The essentials: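 Mouse LK35.2 B cells stably overexpressing human PD-L1 were cultured overnight in RPMI with 10% FCS, then given compound and PE-labeled human PD-1-Ig (1 nM final) for 1 h at 37 °C. After three dPBS washes, bound fluorescence was quantified by high-content imaging.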

Setting [3] is: cell line of CBA not given (LK35.2-hPD-L1 or 293T-hPD-L1).
Setting [4] is: cell binding assay, cell line not given.

T2 sequence (Q9NZQ7 19-290): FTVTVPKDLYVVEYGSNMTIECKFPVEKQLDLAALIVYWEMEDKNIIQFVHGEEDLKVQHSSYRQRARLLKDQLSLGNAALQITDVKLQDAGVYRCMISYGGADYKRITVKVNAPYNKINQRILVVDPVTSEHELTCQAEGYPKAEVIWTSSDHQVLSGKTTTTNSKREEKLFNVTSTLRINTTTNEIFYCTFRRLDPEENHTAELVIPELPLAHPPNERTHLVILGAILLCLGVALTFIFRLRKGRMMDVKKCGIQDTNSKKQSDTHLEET

`CCCC[C@H]1C(=O)N(C)CC(=O)N[C@@H](CC(=O)O)C(=O)N[C@@H](C(C)C)C(=O)N(C)[C@@H](Cc2ccccc2)C(=O)N[C@@H](Cc2cc(Br)c(O)c(Br)c2)C(=O)N(C)CC(=O)N[C@@H](Cc2c[nH]c3ccccc23)C(=O)N[C@@H](Cc2ccc(O)cc2)C(=O)N[C@@H](CC(C)C)C(=O)N[C@H](C(=O)NCC(N)=O)CSCC(=O)N[C@@H](Cc2ccccc2)C(=O)N(C)[C@@H](Cc2ccccc2)C(=O)N1C` [Example 3113] ({CH2CO}-F[NMeF][NMeNle][Sar]DV[NMeF][Tyr(3,5-Br2)][Sar]WYLCG-NH2; thioether N-13): the IC50 in experiment [1] lay within 6.76 to 30.3 nM; in experiment [2] (setting [3]), 4.78 to 72.9 nM.
Regarding `CCCC[C@H]1C(=O)N(C)[C@@H](CCCC)C(=O)N[C@@H](CC(=O)O)C(=O)N[C@H](C(=O)NCC(N)=O)CSCC(=O)N[C@@H](Cc2ccc(O)cc2)C(=O)N(C)[C@@H](C)C(=O)N[C@@H](CC(N)=O)C(=O)N2CCC[C@H]2C(=O)N[C@@H](Cc2c[nH]cn2)C(=O)N[C@@H](CCC(N)=O)C(=O)N2C[C@H](O)C[C@H]2C(=O)N[C@@H](Cc2c[nH]c3ccccc23)C(=O)N[C@@H](CO)C(=O)N[C@@H](Cc2c[nH]c3ccccc23)C(=O)N1C` [Example 5103] ({CH2CO}-Y[NMeA]NPHQ[Hyp]WSW[NMeNle][NMeNle]DCG-NH2; thioether N-14), the IC50 in experiment [1] fell in the range of 6.76 to 30.3 nM; in experiment [2] (setting [4]), 4.78 to 72.9 nM.
For `CCCC[C@H]1C(=O)N(C)[C@@H](CCCC)C(=O)N[C@@H](CCCNC(=N)N)C(=O)N[C@H](C(=O)NCC(N)=O)CSCC(=O)N[C@@H](Cc2ccc(O)cc2)C(=O)N(C)[C@@H](C)C(=O)N[C@@H](CCN)C(=O)N2CCC[C@H]2C(=O)N[C@@H](Cc2c[nH]cn2)C(=O)N[C@@H](CCC(=O)O)C(=O)N2C[C@H](O)C[C@H]2C(=O)N[C@@H](Cc2c[nH]c3ccccc23)C(=O)N[C@@H](CCN)C(=O)N[C@@H](Cc2c[nH]c3ccccc23)C(=O)N1C` [Example 5086] ({CH2CO}-Y[NMeA][Dab]PHE[Hyp]W[Dab]W[NMeNle][NMeNle]RCG-NH2; thioether N-14), in that order: 0.385 to 6.74 nM and 4.78 to 72.9 nM.
Turning to `CCCC[C@H]1C(=O)N(C)CC(=O)N[C@@H](CC(=O)O)C(=O)N[C@@H](C(C)C)C(=O)N(C)[C@@H](Cc2ccccc2)C(=O)N[C@@H](Cc2ccc(O)cc2)C(=O)N(C)CC(=O)N[C@@H](Cc2c[nH]c3ccccc23)C(=O)N[C@@H](Cc2ccc(C(F)(F)F)cc2)C(=O)N[C@@H](CC(C)C)C(=O)N[C@H](C(=O)NCC(N)=O)CSCC(=O)N[C@@H](Cc2ccccc2)C(=O)N(C)[C@@H](Cc2ccccc2)C(=O)N1C` [Example 3138] ({CH2CO}-F[NMeF][NMeNle][Sar]DV[NMeF]Y[Sar]W[Phe(4-CF3)]LCG-NH2; thioether N-13), the figures for the IC50 in experiment [1] and in experiment [2] (setting [3]) were greater than 30.5 nM and greater than 74.3 nM, respectively.
Regarding `CCCC[C@H]1C(=O)N(C)CC(=O)N[C@@H](CC(=O)O)C(=O)N[C@@H](C(C)C)C(=O)N[C@@H](Cc2ccc(CN)cc2)C(=O)N[C@@H](Cc2ccc(O)cc2)C(=O)N(C)CC(=O)N[C@@H](Cc2c[nH]c3ccccc23)C(=O)N[C@@H](Cc2ccc(O)cc2)C(=O)N[C@@H](CC(C)C)C(=O)N[C@H](C(=O)NCC(N)=O)CSCC(=O)N[C@@H](Cc2ccccc2)C(=O)N(C)[C@@H](Cc2ccccc2)C(=O)N1C` [Example 3523] ({CH2CO}-F[NMeF][NMeNle][Sar]DV[Phe(4-CH2NH2)]Y[Sar]WYLCG-NH2; thioether N-13), the IC50 was greater than 30.5 nM in experiment [1] and greater than 74.3 nM in experiment [2] (setting [4]).
As to `CCCC[C@H]1C(=O)N(C)[C@@H](CCCC)C(=O)N[C@@H](CCCNC(=N)N)C(=O)N[C@H](C(=O)NCC(N)=O)CSCC(=O)N[C@@H](Cc2ccc(O)cc2)C(=O)N(C)[C@@H](C)C(=O)N[C@@H](CC(N)=O)C(=O)N2CCC[C@H]2C(=O)N[C@@H](C)C(=O)N[C@@H](CC(C)C)C(=O)N2C[C@@H](O)C[C@H]2C(=O)N[C@@H](Cc2c[nH]c3ccccc23)C(=O)N[C@@H](CO)C(=O)N[C@@H](Cc2c[nH]c3ccccc23)C(=O)N1C` [Example 1142] ({CH2CO}-Y[NMeA]NPAL[cisHyp]WSW[NMeNle][NMeNle]RCG-NH2; thioether N-14), the IC50 in experiment [1] was in the range of 6.76 to 30.3 nM; in experiment [2] (setting [3]), 4.78 to 72.9 nM.
The matching figures for `CCCC[C@H]1C(=O)N(C)CC(=O)N[C@@H](CC(=O)O)C(=O)N[C@@H](C(C)C)C(=O)N(C)[C@@H](Cc2ccccc2)C(=O)N[C@@H](Cc2ccc(O)cc2)C(=O)N(C)CC(=O)N[C@@H](Cc2c[nH]c3ccccc23)C(=O)N[C@@H](Cc2ccc(O)cc2)C(=O)N[C@@H](CC(C)C)C(=O)N[C@H](C(=O)NCC(N)=O)CSCC(=O)N[C@@H](Cc2cc(F)cc(F)c2)C(=O)N(C)[C@@H](Cc2ccccc2)C(=O)N1C` [Example 3143] ({CH2CO}-[Phe(3,5-F2)][NMeF][NMeNle][Sar]DV[NMeF]Y[Sar]WYLCG-NH2; thioether N-13): 6.76 to 30.3 nM and 0.158 to 4.71 nM.
The matching figures for `CCCC[C@H]1C(=O)N(C)CC(=O)N[C@@H](CC(=O)O)C(=O)N[C@@H](C(C)C)C(=O)N(C)[C@@H](Cc2ccccc2)C(=O)N[C@@H](Cc2ccc(CN)cc2)C(=O)N(C)CC(=O)N[C@@H](Cc2c[nH]c3ccccc23)C(=O)N[C@@H](Cc2ccc(O)cc2)C(=O)N[C@@H](CC(C)C)C(=O)N[C@H](C(=O)NCC(N)=O)CSCC(=O)N[C@@H](Cc2ccc(F)cc2)C(=O)N(C)[C@@H](Cc2ccccc2)C(=O)N1C` [Example 3123] ({CH2CO}-[Phe(4-F)][NMeF][NMeNle][Sar]DV[NMeF][Phe(4-CH2NH2)][Sar]WYLCG-NH2; thioether N-13): 6.76 to 30.3 nM and 0.158 to 4.71 nM.
`CCCC[C@H]1C(=O)N(C)CC(=O)N[C@@H](CC(=O)O)C(=O)N[C@@H](C(C)C)C(=O)N(C)[C@@H](Cc2ccccc2)C(=O)N[C@@H](Cc2c[nH]c3ccc(Cl)cc23)C(=O)N(C)CC(=O)N[C@@H](Cc2c[nH]c3ccccc23)C(=O)N[C@@H](Cc2ccc(O)cc2)C(=O)N[C@@H](CC(C)C)C(=O)N[C@H](C(=O)NCC(N)=O)CSCC(=O)N[C@@H](Cc2ccccc2)C(=O)N(C)[C@@H](Cc2ccccc2)C(=O)N1C` [Example 3109] ({CH2CO}-F[NMeF][NMeNle][Sar]DV[NMeF][Trp(5-Cl)][Sar]WYLCG-NH2; thioether N-13): the results for the IC50 in experiment [1] and in experiment [2] (setting [3]) were greater than 30.5 nM and 4.78 to 72.9 nM, respectively.
Regarding `CCCC[C@H]1C(=O)N(C)[C@@H](CCCC)C(=O)N[C@@H](CCCNC(=N)N)C(=O)N[C@H](C(=O)NCC(N)=O)C/C=C/C(=O)N[C@@H](Cc2ccc(O)cc2)C(=O)N(C)[C@@H](C)C(=O)N[C@@H](CC(N)=O)C(=O)N2CCCC2C(=O)N[C@@H](Cc2cnc[nH]2)C(=O)N[C@@H](CC(C)C)C(=O)N2CCC[C@H]2C(=O)N[C@@H](Cc2c[nH]c3ccccc23)C(=O)N[C@@H](CO)C(=O)N[C@@H](Cc2c[nH]c3ccccc23)C(=O)N1C` (stereo partly shown) [Example 7012], the IC50 in experiment [1] was greater than 30.5 nM; in experiment [2] (setting [4]) it was greater than 74.3 nM.
In the case of `CCCC[C@H]1C(=O)N(C)[C@@H](CCCC)C(=O)N[C@@H](CCN)C(=O)N[C@H](C(=O)NCC(N)=O)CSCC(=O)N[C@@H](Cc2ccc(O)cc2)C(=O)N(C)[C@@H](C)C(=O)N[C@@H](CC(=O)O)C(=O)N2CCC[C@H]2C(=O)N[C@@H](Cc2cnc[nH]2)C(=O)N[C@@H](CCC(N)=O)C(=O)N2C[C@H](O)C[C@H]2C(=O)N[C@@H](Cc2c[nH]c3ccccc23)C(=O)N[C@@H](CO)C(=O)N[C@@H](Cc2c[nH]c3ccccc23)C(=O)N1C` [Example 5045] ({CH2CO}-Y[NMeA]DPHQ[Hyp]WSW[NMeNle][NMeNle][Dab]CG-NH2; thioether N-14), the IC50 in experiment [1] lay within 0.385 to 6.74 nM; in experiment [2] (setting [4]), 0.158 to 4.71 nM.
For the compound `CCCC[C@H]1C(=O)N(C)[C@@H](CCCC)C(=O)N[C@@H](CCCNC(=N)N)C(=O)N[C@H](C(=O)NCC(N)=O)CSCC(=O)N[C@@H](Cc2ccccc2)C(=O)N(C)[C@@H](C)C(=O)N[C@@H](CC(N)=O)C(=O)N2CCC[C@H]2C(=O)N[C@@H](Cc2cnc[nH]2)C(=O)N[C@@H](CC(C)C)C(=O)N[C@@H](CC(N)=O)C(=O)N[C@@H](Cc2c[nH]c3ccccc23)C(=O)N[C@@H](CO)C(=O)N[C@@H](Cc2c[nH]c3ccccc23)C(=O)N1C` [Example 1075] ({CH2CO}-F[NMeA]NPHLNWSW[NMeNle][NMeNle]RCG-NH2; thioether N-14), the IC50 in experiment [1] was greater than 30.5 nM; in experiment [2] (setting [3]), greater than 74.3 nM.
Take `CCCC[C@H]1C(=O)N(C)[C@@H](CCCC)C(=O)N[C@@H](CCCNC(=N)N)C(=O)N[C@H](C(=O)NCC(N)=O)CSCC(=O)N[C@@H](Cc2cccc(F)c2)C(=O)N(C)[C@@H](C)C(=O)N[C@@H](CC(N)=O)C(=O)N2CCC[C@H]2C(=O)N[C@@H](Cc2cnc[nH]2)C(=O)N[C@@H](CC(C)C)C(=O)N2CCC[C@H]2C(=O)N[C@@H](Cc2c[nH]c3ccccc23)C(=O)N[C@@H](CO)C(=O)N[C@@H](Cc2c[nH]c3ccccc23)C(=O)N1C` [Example 7016] ({CH2CO}-[Phe(3-F)][NMeA]NPHLPWSW[NMeNle][NMeNle]RCG-NH2; thioether N-14): the IC50 in experiment [1] lay in the range of 6.76 to 30.3 nM; in experiment [2] (setting [4]), 4.78 to 72.9 nM.
Turning to `CCCC[C@H]1C(=O)N(C)CC(=O)N[C@@H](CC(=O)O)C(=O)N[C@@H](C(C)C)C(=O)N(C)[C@@H](Cc2ccccc2)C(=O)N[C@@H](Cc2ccc(O)cc2)C(=O)N(C)CC(=O)N[C@@H](Cc2c[nH]c3ccccc23)C(=O)N[C@@H](Cc2ccc(O)cc2)C(=O)N[C@@H](CC(C)C)C(=O)N[C@H](C(=O)NCC(N)=O)CSCC(=O)N[C@@H](Cc2ccco2)C(=O)N(C)[C@@H](Cc2ccccc2)C(=O)N1C` [Example 3101] ({CH2CO}-[Ala(2-furyl)][NMeF][NMeNle][Sar]DV[NMeF]Y[Sar]WYLCG-NH2; thioether N-13), the IC50 in experiment [1] was greater than 30.5 nM; in experiment [2] (setting [3]), greater than 74.3 nM.
